In US11104682B2, “Salts of TAM inhibitors” (Incyte Corporation, priority 2017, dated 2021):
Where a name gives a salt, the structure may show the parent alone. Each block holds one compound with its values, some of them ahead of it.

Tests used:
[1] = target: Tyro3 (Homo sapiens (Human), UniProt Q06418); experiment: TAM Enzymatic Assay (HTRF), Tyro3; format: biochemical; conditions: 0.366 nM Tyro3, ATP
Method: (§1) The kinase assay buffer contained 50 mM HEPES, pH7.5, 10 mM MgCl2, 1 mM EGTA, 0.01% NP-40 and 2 mM DTT. 0.1 ul test compounds dissolved in DMSO were transferred from compound plates to white 384-well assay plates (Greiner […] plates). The final concentration of DMSO was 1.25%. Enzyme solutions of 5.1 nM phosphor-Axl, or 0.0625 nM c-Mer (Carna Biosciences, 08-108), or 0.366 nM Tyro3 (Life Technologies, PR7480A) were prepared in assay buffer. A 1 mM stock solution of peptide substrate Biotin-[…]-amide SEQ ID NO: 1 (Quality Controlled Biochemicals, MA) dissolved in DMSO was diluted to 1 uM in assay buffer containing 2000 uM ATP. 4 ul enzyme solution (or assay buffer for the enzyme blank) was added to the appropriate wells in each plate, and then 4 ul/well substrate solution was added to initiate the reaction. The plate was protected from light and incubated at room temperature for 60 min. […] The plate was incubated for 1 h at room temperature, and HTRF (homogenous time resolved fluorescence) signal was measured on a PHERAstar FS plate reader (BMG labtech). Percentage of inhibition was calculated for each concentration and IC50 value was generated from curve fitting with GraphPad Prism software.

[2] = target: Axl (Homo sapiens (Human), UniProt P30530); experiment: TAM Enzymatic Assay (HTRF), phosphor-Axl; format: biochemical; conditions: 5.1 nM phosphor-Axl, ATP
Axl, sequence (P30530 26-894): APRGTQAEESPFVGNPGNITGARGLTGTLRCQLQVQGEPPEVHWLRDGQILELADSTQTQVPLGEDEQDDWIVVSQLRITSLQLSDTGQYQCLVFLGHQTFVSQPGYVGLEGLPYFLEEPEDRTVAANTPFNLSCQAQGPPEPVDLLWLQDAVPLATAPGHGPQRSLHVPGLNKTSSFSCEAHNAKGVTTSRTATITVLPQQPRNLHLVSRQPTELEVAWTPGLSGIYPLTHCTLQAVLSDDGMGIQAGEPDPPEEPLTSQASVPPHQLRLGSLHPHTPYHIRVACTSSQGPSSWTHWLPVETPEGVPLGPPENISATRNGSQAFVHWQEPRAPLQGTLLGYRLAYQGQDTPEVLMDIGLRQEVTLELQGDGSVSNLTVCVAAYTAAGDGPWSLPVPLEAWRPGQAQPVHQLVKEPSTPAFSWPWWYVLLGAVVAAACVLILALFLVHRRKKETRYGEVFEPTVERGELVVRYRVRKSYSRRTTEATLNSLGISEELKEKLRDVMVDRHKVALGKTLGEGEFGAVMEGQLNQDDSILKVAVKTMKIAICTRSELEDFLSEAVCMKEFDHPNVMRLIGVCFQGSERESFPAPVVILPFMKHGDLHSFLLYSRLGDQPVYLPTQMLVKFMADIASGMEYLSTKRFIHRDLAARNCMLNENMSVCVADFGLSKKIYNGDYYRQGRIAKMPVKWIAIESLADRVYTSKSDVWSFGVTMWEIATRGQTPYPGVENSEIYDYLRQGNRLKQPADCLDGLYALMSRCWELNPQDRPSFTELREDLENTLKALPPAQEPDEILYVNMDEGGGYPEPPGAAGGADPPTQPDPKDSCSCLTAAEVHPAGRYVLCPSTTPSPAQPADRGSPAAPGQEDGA
Method: Autophosphorylation of Axl was carried out by incubating the recombinant Axl protein (Life Technologies, PV4275) in buffer containing 50 mM Tris, pH7.5, 0.2 mg/ml Axl, 5 mM ATP, 20 mM MgCl2 and 2 mM DTT at room temperature for 1 hour.
as §1, with “reaction.” for “reaction. The plate was protected from light and incubated at room temperature for 60 min.”

[3] = target: c-Mer (Homo sapiens (Human), UniProt Q12866); experiment: TAM Enzymatic Assay (HTRF), c-Mer; format: biochemical; conditions: 0.0625 nM c-Mer, ATP
c-Mer, sequence (Q12866 21-999): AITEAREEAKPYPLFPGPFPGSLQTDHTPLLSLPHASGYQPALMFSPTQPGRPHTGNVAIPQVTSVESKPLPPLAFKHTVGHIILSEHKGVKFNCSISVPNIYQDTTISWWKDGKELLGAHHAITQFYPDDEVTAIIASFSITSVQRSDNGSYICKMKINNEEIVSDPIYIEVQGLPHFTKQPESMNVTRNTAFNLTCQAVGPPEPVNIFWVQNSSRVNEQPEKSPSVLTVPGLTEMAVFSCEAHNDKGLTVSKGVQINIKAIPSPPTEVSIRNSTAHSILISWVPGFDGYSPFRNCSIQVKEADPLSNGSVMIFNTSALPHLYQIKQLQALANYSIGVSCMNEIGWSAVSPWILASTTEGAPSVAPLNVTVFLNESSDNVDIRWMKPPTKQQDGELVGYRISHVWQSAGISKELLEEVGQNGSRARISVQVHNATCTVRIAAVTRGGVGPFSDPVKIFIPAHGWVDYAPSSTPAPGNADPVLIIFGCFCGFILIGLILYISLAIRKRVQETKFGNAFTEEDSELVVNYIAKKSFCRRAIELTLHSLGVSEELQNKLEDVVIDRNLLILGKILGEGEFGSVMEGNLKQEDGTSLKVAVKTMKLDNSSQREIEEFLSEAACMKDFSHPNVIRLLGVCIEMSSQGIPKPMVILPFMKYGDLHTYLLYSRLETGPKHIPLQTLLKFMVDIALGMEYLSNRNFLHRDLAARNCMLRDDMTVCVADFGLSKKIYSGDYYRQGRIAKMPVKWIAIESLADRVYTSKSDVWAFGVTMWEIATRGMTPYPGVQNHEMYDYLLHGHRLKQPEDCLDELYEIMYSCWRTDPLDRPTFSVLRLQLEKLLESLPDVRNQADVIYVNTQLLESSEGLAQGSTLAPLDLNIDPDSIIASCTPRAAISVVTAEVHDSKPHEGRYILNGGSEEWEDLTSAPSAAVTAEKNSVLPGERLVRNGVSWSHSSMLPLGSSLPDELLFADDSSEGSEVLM
Method: as §1

[4] = Solubility of Compound I maleate salt in solvents (saturated solution, HPLC); format: physicochemical; conditions: thermodynamic from solid; for solubility at 48 h: 25 °C, 25±1° C.; for solubility at 24 h: 50 °C, 50±1° C.
[5] = organic solvent or mixture, solvent 1,4-Dioxane
[6] = organic solvent or mixture, solvent 1-Propanol
[7] = organic solvent or mixture, solvent 2-Methoxyethanol
[8] = organic solvent or mixture, solvent Acetone
[9] = organic solvent or mixture, solvent Chloroform
[10] = organic solvent or mixture, solvent DMF
[11] = organic solvent or mixture, solvent DMSO
[12] = organic solvent or mixture, solvent Dichloromethane
[13] = organic solvent or mixture, solvent EtOAc
[14] = organic solvent or mixture, solvent EtOH
[15] = organic solvent or mixture, solvent Ethyl formate
[16] = organic solvent or mixture, solvent IPA
[17] = organic solvent or mixture, solvent IPAc
[18] = organic solvent or mixture, solvent MEK
[19] = organic solvent or mixture, solvent MIBK
[20] = organic solvent or mixture, solvent MTBE
[21] = organic solvent or mixture, solvent MeCN
[22] = organic solvent or mixture, solvent Methanol
[23] = organic solvent or mixture, solvent THF
[24] = organic solvent or mixture, solvent Toluene
[25] = organic solvent or mixture, solvent n-BuOH

Tyro3, sequence (Q06418 41-890): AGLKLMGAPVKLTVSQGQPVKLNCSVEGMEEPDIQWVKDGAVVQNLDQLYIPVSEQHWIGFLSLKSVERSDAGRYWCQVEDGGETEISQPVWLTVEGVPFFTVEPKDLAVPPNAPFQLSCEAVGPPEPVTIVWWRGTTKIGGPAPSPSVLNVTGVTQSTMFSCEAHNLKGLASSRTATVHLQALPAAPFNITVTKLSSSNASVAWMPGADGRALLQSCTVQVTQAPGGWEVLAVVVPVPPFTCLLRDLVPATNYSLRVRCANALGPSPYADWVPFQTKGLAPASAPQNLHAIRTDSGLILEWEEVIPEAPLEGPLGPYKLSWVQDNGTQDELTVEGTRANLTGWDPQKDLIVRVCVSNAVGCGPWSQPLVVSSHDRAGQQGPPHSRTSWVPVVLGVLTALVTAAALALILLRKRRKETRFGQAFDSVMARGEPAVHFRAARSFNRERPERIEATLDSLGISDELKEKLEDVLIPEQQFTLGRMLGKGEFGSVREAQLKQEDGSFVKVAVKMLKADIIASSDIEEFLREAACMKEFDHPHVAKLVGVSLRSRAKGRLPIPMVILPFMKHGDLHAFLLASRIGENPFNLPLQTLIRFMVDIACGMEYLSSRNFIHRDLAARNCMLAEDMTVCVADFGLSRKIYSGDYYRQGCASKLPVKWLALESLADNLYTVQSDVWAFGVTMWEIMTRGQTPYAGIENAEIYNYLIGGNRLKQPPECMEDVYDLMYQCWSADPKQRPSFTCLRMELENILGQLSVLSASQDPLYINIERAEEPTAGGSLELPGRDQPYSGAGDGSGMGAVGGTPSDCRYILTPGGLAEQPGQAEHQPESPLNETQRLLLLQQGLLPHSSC

IC50 [1]: 10 to 100 nM | IC50 [2]: ≤ 5 nM | IC50 [3]: ≤ 5 nM
Compound: CC(C)C(=O)N1CCC(c2cc(-c3ccc(NC(=O)c4cn(C(C)C)c(=O)n(-c5ccccc5)c4=O)cc3)c3c(N)ncnn23)CC1 [Compound II hemi-sulfuric acid salt, N-(4-(4-Amino-7-(1-isobutyrylpiperidin-4-yl)pyrrolo[1,2-f][1,2,4]triazin-5-yl)phenyl)-1-isopropyl-2,4-dioxo-3-phenyl-1,2,3,4-tetrahydropyrimidine-5-carboxamide hemisulfate]

solubility at 48 h [4, 5]: 2310 µg/mL | solubility at 48 h [4, 6]: 440 µg/mL | solubility at 48 h ([4]; organic solvent or mixture, solvent 2% DCM/98% MeOH (V/V)): 1460 µg/mL | solubility at 48 h [4, 7]: 5960 µg/mL | solubility at 48 h ([4]; organic solvent or mixture, solvent 10% DCM/90% MeOH (V/V)): 1880 µg/mL | solubility at 48 h [4, 8]: 1680 µg/mL | solubility at 48 h [4, 9]: 6120 µg/mL | solubility at 48 h ([4]; organic solvent or mixture, solvent DCM/MeOH(2/1)): > 50000 µg/mL | solubility at 48 h [4, 10]: > 50000 µg/mL | solubility at 48 h [4, 11]: > 50000 µg/mL | solubility at 48 h [4, 12]: 24400 µg/mL | solubility at 48 h [4, 13]: 180 µg/mL | solubility at 48 h [4, 14]: 650 µg/mL | solubility at 48 h [4, 15]: 680 µg/mL | solubility at 48 h [4, 16]: 160 µg/mL | solubility at 48 h [4, 17]: 270 µg/mL | solubility at 48 h [4, 18]: 280 µg/mL | solubility at 48 h [4, 19]: 430 µg/mL | solubility at 48 h [4, 20]: 80 µg/mL | solubility at 48 h [4, 21]: 280 µg/mL | solubility at 48 h [4, 22]: 1640 µg/mL | solubility at 48 h [4, 23]: 920 µg/mL | solubility at 48 h [4, 24]: 180 µg/mL | solubility at 48 h [4, 25]: 210 µg/mL | solubility at 48 h ([4]; solvent Water): 20 µg/mL | solubility at 24 h [4, 5]: 4620 µg/mL | solubility at 24 h [4, 6]: 1310 µg/mL | solubility at 24 h [4, 7]: 14800 µg/mL | solubility at 24 h [4, 8]: 3050 µg/mL | solubility at 24 h [4, 9]: 13700 µg/mL | solubility at 24 h [4, 10]: > 50000 µg/mL | solubility at 24 h [4, 11]: > 50000 µg/mL | solubility at 24 h [4, 12]: 33700 µg/mL | solubility at 24 h [4, 13]: 400 µg/mL | solubility at 24 h [4, 14]: 1930 µg/mL | solubility at 24 h [4, 15]: 990 µg/mL | solubility at 24 h [4, 16]: 680 µg/mL | solubility at 24 h [4, 17]: 330 µg/mL | solubility at 24 h [4, 18]: 2190 µg/mL | solubility at 24 h [4, 19]: 740 µg/mL | solubility at 24 h [4, 20]: 100 µg/mL | solubility at 24 h [4, 21]: 680 µg/mL | solubility at 24 h [4, 22]: 3090 µg/mL | solubility at 24 h [4, 23]: 1630 µg/mL | solubility at 24 h [4, 24]: 200 µg/mL | solubility at 24 h [4, 25]: 1100 µg/mL | solubility at 24 h ([4]; solvent Water): 40 µg/mL | IC50 [1]: 10 to 100 nM | IC50 [2]: ≤ 5 nM | IC50 [3]: ≤ 5 nM
Compound: CC(C)C(=O)N1CCC(c2cc(-c3ccc(NC(=O)c4cn(C(C)C)c(=O)n(-c5ccccn5)c4=O)cc3)c3c(N)ncnn23)CC1 [Compound I maleate salt, N-(4-(4-Amino-7-(1-isobutyrylpiperidin-4-yl)pyrrolo[1,2-f][1,2,4]triazin-5-yl)phenyl)-1-isopropyl-2,4-dioxo-3-(pyridin-2-yl)-1,2,3,4-tetrahydropyrimidine-5-carboxamide maleate]
